Test results as given in the supplement of paper PMC10702517.
± gives the standard deviation.

How the values were obtained:
[1] = chemical recovery from spiked human plasma; higher = better extraction; conditions: pooled human plasma
[2] = chemical recovery by SPE of plasma after PDMS sampling; higher = better extraction; conditions: pooled human plasma, extraction method: HLB SPE of plasma after PES
[3] = extraction method: SPE only (HLB 96-well), PES comparison experiment
[4] = extraction method: PES+SPE (3 d PDMS equilibration then HLB SPE)
[5] = extraction method: SPE only (HLB 96-well)
[6] = extraction method: solvent precipitation (ACN + hexane)
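For chemical recovery by SPE of plasma after PDMS sampling in this document: over 400 spiked chemicals quantified by LC-HRMS or GC-HRMS via internal standard calibration, recovery relative to spike mix added to unspiked plasma extract to correct matrix effects.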

SMILES	chemical recovery [1, 3] [%]	chemical recovery by SPE of plasma ([2]; equilibration time (d): 1) [%]	chemical recovery by SPE of plasma ([2]; equilibration time (d): 3) [%]	chemical recovery by SPE of plasma ([2]; equilibration time (d): 6) [%]	chemical recovery [1, 4] [%]	chemical recovery [1, 5] [%]	chemical recovery [1, 6] [%]
CC(=O)Nc1ccc(O)c(C(=O)O)c1 [N-Acetyl mesalazine]	58.9 ± 4.9	56.2 ± 8.4	61.6 ± 4.1	55.1 ± 4.2			
CCCCNS(=O)(=O)c1ccccc1 [N-Butylbenzenesulfonamide]		11.4 ± 0.85	17.5 ± 1.5	11.5 ± 1.4	45.4 ± 6.6	48.7 ± 6.1	
c1ccc2sc(SNC3CCCCC3)nc2c1 [N-Cyclohexyl-2-benzothiazole-sulfenamide]	44.1 ± 3.7	42.3 ± 7.4	43.6 ± 3.3	42.3 ± 4.2			
CCCCCCCCCCCCNC [N-Methyldodecylamine]	44.7 ± 7.9	0.209 ± 0.36					62.7 ± 5.7
COc1ccc2cc(C(C)C(=O)O)ccc2c1 (centres undefined) [Naproxen]	73.3 ± 9.3		36.6 ± 5.5	36.5 ± 9.1	66 ± 2.3	63.8 ± 1.9	70.2 ± 4.7
COc1cc(OC)nc(NC(=O)NS(=O)(=O)c2ncccc2C(=O)N(C)C)n1 [Nicosulfuron]	49.3 ± 3.4	51.6 ± 5.2	56 ± 2.5	50.3 ± 3.3		44.7 ± 3.3	64.3 ± 2.2
Oc1nc(O)c2cn[nH]c2n1 [Oxypurinol]			1.02 ± 0.27				17 ± 2.7
Clc1ccc(-c2ccc(Cl)cc2Cl)cc1 [PCB28]	20.3 ± 4.4	1.11 ± 1	1.62 ± 0.27	1.51 ± 0.26		5.86 ± 1.6	
Clc1ccc(Cl)c(-c2cc(Cl)ccc2Cl)c1 [PCB52]	16.2 ± 3.2	1.19 ± 0.83	1.25 ± 0.28	1.09 ± 0.3	48.5 ± 8.4	3.67 ± 0.85	
O=C(O)C(F)(F)C(F)(F)C(F)(F)F [Perfluorobutanoic acid]	41.2 ± 3.3	24.1 ± 6	23.9 ± 1.9	23.3 ± 8.1	26.4 ± 3.3	23.3 ± 2.6	73 ± 7.5
O=C(O)C(F)(F)C(F)(F)C(F)(F)C(F)(F)C(F)(F)C(F)(F)C(F)(F)C(F)(F)C(F)(F)F [Perfluorodecanoic acid]		25.3 ± 4.6	24.1 ± 4.5			20.4 ± 10	
c1ccc2c(c1)ccc1ccccc12 [Phenanthrene]	20.8 ± 2.2	2.82 ± 2.2	2.33 ± 0.82	3.01 ± 1.1		8.44 ± 0.76	
CCc1ccc(CCOc2ccc(CC3SC(=O)NC3=O)cc2)nc1 (centres undefined) [Pioglitazone]	42.9 ± 6	45.8 ± 9.5	49.1 ± 3	47 ± 6.1	42.9 ± 3.5	48.6 ± 3.3	
C[C@]12C=CC(=O)C=C1CC[C@@H]1[C@@H]2[C@@H](O)C[C@@]2(C)[C@H]1CC[C@]2(O)C(=O)CO [Prednisolone]	61.1 ± 7.2		48.4 ± 2.3	44.5 ± 1.3			
CC(CN1c2ccccc2Sc2ccccc21)N(C)C (centres undefined) [Promethazin]	43.8 ± 7.1	0.16 ± 0.11	0.172 ± 0.13	0.00932 ± 0.01	0.204 ± 0.12	55.2 ± 14	74.2 ± 4.5
CCCOc1nn(C(=O)NS(=O)(=O)c2ccccc2C(=O)OC)c(=O)n1C [Propoxycarbazone]	43.2 ± 6.2	27.1 ± 5.6	32 ± 2.5	29.4 ± 1.4	39.2 ± 4.4	31.4 ± 2.8	75.6 ± 5.4
COc1nc(C)nc(NC(=O)NS(=O)(=O)c2ccccc2CCC(F)(F)F)n1 [Prosulfuron]	42.7 ± 6.3	48.5 ± 11	50.6 ± 4.8	45.3 ± 5.2	44.3 ± 3.7	37.9 ± 4.5	75.5 ± 0.94
Cc1cnc2c(C(=O)O)c(Cl)ccc2c1 [Quinmerac]	52.2 ± 6.4	54.5 ± 9.6	61.1 ± 6.2	56.5 ± 1.8	43.6 ± 2.5	40.8 ± 3.5	65.8 ± 4.1
O=C(c1ccc(OCCN2CCCCC2)cc1)c1c(-c2ccc(O)cc2)sc2cc(O)ccc12 [Raloxifene]	47.4 ± 8.5	41.3 ± 2.1	46.1 ± 2.4	39.8 ± 2.8			63.5 ± 3.5
CC[C@H]1OC(=O)[C@H](C)[C@@H](O[C@H]2C[C@@](C)(OC)[C@@H](O)[C@H](C)O2)[C@H](C)[C@@H](O[C@@H]2O[C@H](C)C[C@H](N(C)C)[C@H]2O)[C@](C)(O)C[C@@H](C)/C(=N\OCOCCOC)[C@H](C)[C@@H](O)[C@]1(C)O [Roxithromycin]	36.2 ± 4.7	28.8 ± 5.2	29.5 ± 4.3	26.9 ± 3.6			
O=C(O)c1ccccc1O [Salicylic acid]	69.7 ± 4.9	61.1 ± 13	78.9 ± 5.7	59.8 ± 3.9			
CC(C)NCC(O)c1ccc(NS(C)(=O)=O)cc1 (centres undefined) [Sotalol]			21.5 ± 3.9	30.9 ± 12		20.9 ± 5.4	75 ± 2.5
CCCN(CC)CC1COC2(CCC(C(C)(C)C)CC2)O1 (centres undefined) [Spiroxamine]	43.7 ± 7.8	0.0924 ± 0.066	0.0829 ± 0.053	0.0434 ± 0.0086	0.223 ± 0.025	47.5 ± 0.85	
COc1cc(NS(=O)(=O)c2ccc(N)cc2)nc(OC)n1 [Sulfadimethoxine]	45.7 ± 3.6	49 ± 9.9	50.2 ± 5.5	48.5 ± 7.4	33.4 ± 3.4	30.1 ± 3.6	
CC/C(=C(\c1ccccc1)c1ccc(OCCN(C)C)cc1)c1ccccc1 [Tamoxifen]	38.5 ± 11	0.427 ± 0.08	0.167 ± 0.14	0.104 ± 0.056	0.265 ± 0.056	39.4 ± 8.3	
CC(C)(c1cc(Br)c(O)c(Br)c1)c1cc(Br)c(O)c(Br)c1 [Tetrabromobisphenol A]	29.4 ± 10		30.4 ± 11				14.4 ± 1.4
CCCCNc1ccc(C(=O)OCCN(C)C)cc1 [Tetracain]		0.00668 ± 0.0083			0.105 ± 0.0078	2.67 ± 1.9	
O=c1[nH]nc(C(F)(F)F)s1 [Thiadone]	15.9 ± 4.4		47.9 ± 6.8	41.5 ± 14			
Cc1cccc(Nc2ccncc2S(=O)(=O)NC(=O)NC(C)C)c1 [Torasemide]	49.1 ± 3.4	50.8 ± 5.4	54 ± 2.9	50.9 ± 2.3	38.9 ± 4.2	43.8 ± 3.6	73.1 ± 4.1
